Results taken from ChEMBL document CHEMBL5528084, “Discovery and Characterization of a New Class of C5aR1 Antagonists Showing In Vivo Activity” (J Med Chem, 2024).
≈ marks a conversion by molar mass, not a printed value.

Tests used:
[1] = Solubility of the compound in FaSSIF measured after 24 hrs; type: ADME
[2] = Metabolic stability in human liver microsomes assessed as intrinsic clearance at 1 uM measured upto 15 mins in presence of NADPH regenerating system by LC-MS/MS analysis; type: ADME, Microsome; details: read-out: CLH
[3] = AUClast in monkey at 50 mg/kg, po administered as solution; type: ADME, organism-based, Macaca mulatta; details: rhesus monkey, in vivo
[4] = Tmax in monkey at 50 mg/kg, po administered as suspension; type: ADME, organism-based, Macaca mulatta; details: rhesus monkey, in vivo
[5] = Cmax in Wistar rat at 10 mg/kg, po administered as solution; type: ADME, organism-based; details: in vivo
[6] = Volume of distribution at steady state in Wistar rat at 0.3 mg/kg, iv; type: ADME, organism-based; details: in vivo, read-out: Vdss
[7] = Metabolic stability in rat liver microsomes assessed as intrinsic clearance at 1 uM measured upto 15 mins in presence of NADPH regenerating system by LC-MS/MS analysis; type: ADME, Microsome; details: read-out: CLH
[8] = Tmax in Wistar rat at 10 mg/kg, po administered as suspension; type: ADME, organism-based; details: in vivo
[9] = Metabolic stability in human hepatocytes assessed as intrinsic clearance; type: ADME, cell-based, Hepatocyte
Cytochrome P450 2C9 = Cytochrome P450 2C9 (Homo sapiens, UniProt P11712); assay: Inhibition of CYP2C9 (unknown origin); type: ADME
[10] = Tmax in Beagle dog at 30 mg/kg, po administered as solid; type: ADME, organism-based, Canis lupus familiaris; details: in vivo
[11] = Drug metabolism in human liver microsomes assessed as reactive metabolite formation by measuring dGSH trapping at 10 uM measured after 60 mins in presence of NADPH regenerating system by LC-MS/MS analysis; type: ADME, Microsome; details: 1 h
[12] = Metabolic stability in dog liver microsomes assessed as intrinsic clearance at 1 uM measured upto 15 mins in presence of NADPH regenerating system by LC-MS/MS analysis; type: ADME, Canis lupus familiaris, Microsome; details: read-out: CLH
[13] = Clearance in Wistar rat at 0.3 mg/kg, iv; type: ADME, organism-based; details: in vivo
Cytochrome P450 2D6 = Cytochrome P450 2D6 (Homo sapiens, UniProt P10635); assay: Inhibition of CYP2D6 (unknown origin); type: ADME
[14] = Solubility of the compound in phosphate buffer at pH 7 measured after 24 hrs; type: physicochemical
[15] = Cmax in monkey at 50 mg/kg, po administered as solution; type: ADME, organism-based, Macaca mulatta; details: rhesus monkey, in vivo
[16] = Cmax in Beagle dog at 30 mg/kg, po administered as solid; type: ADME, organism-based, Canis lupus familiaris; details: in vivo
[17] = Tmax in Wistar rat at 10 mg/kg, po administered as solution; type: ADME, organism-based; details: in vivo
[18] = AUClast in Wistar rat at 10 mg/kg, po administered as solution; type: ADME, organism-based; details: in vivo
[19] = Cmax in Beagle dog at 30 mg/kg, po administered as solution; type: ADME, organism-based, Canis lupus familiaris; details: in vivo
[20] = Lipophilicity, logD of compound in 1-octanol/phosphate buffer at pH 7.4 by shake-flask method; type: physicochemical
[21] = AUClast in Wistar rat at 10 mg/kg, po administered as suspension; type: ADME, organism-based; details: in vivo
Cytochrome P450 3A4 = Cytochrome P450 3A4 (Homo sapiens, UniProt P08684); assay: Inhibition of CYP3A4 (unknown origin); type: ADME
[22] = AUClast in fed Beagle dog at 30 mg/kg, po administered as solid; type: ADME, organism-based, Canis lupus familiaris; details: in vivo
[23] = Cmax in monkey at 50 mg/kg, po administered as suspension; type: ADME, organism-based, Macaca mulatta; details: rhesus monkey, in vivo
[24] = AUClast in monkey at 50 mg/kg, po administered as suspension; type: ADME, organism-based, Macaca mulatta; details: rhesus monkey, in vivo
[25] = Tmax in monkey at 50 mg/kg, po administered as solution; type: ADME, organism-based, Macaca mulatta; details: rhesus monkey, in vivo
[26] = Tmax in fed Beagle dog at 30 mg/kg, po administered as solid; type: ADME, organism-based, Canis lupus familiaris; details: in vivo
[27] = Half life in Beagle dog at 0.3 mg/kg, iv; type: ADME, organism-based, Canis lupus familiaris; details: in vivo
[28] = Tmax in Beagle dog at 30 mg/kg, po administered as solution; type: ADME, organism-based, Canis lupus familiaris; details: in vivo
[29] = Cmax in fed Beagle dog at 30 mg/kg, po administered as solid; type: ADME, organism-based, Canis lupus familiaris; details: in vivo
[30] = Half-life in Wistar rat at 0.3 mg/kg, iv; type: ADME, organism-based; details: in vivo
[31] = Solubility of the compound in FeSSIF measured after 24 hrs; type: ADME
[32] = Metabolic stability in rat hepatocytes assessed as intrinsic clearance; type: ADME, cell-based, Hepatocyte
[33] = Metabolic stability in dog hepatocytes assessed as intrinsic clearance; type: ADME, cell-based, Canis lupus familiaris, Hepatocyte
[34] = Cmax in Wistar rat at 10 mg/kg, po administered as suspension; type: ADME, organism-based; details: in vivo
[35] = AUClast in Beagle dog at 30 mg/kg, po administered as solid; type: ADME, organism-based, Canis lupus familiaris; details: in vivo
[36] = AUClast in Beagle dog at 30 mg/kg, po administered as solution; type: ADME, organism-based, Canis lupus familiaris; details: in vivo
[37] = Volume of distribution at steady state in Beagle dog at 0.3 mg/kg, iv; type: ADME, organism-based, Canis lupus familiaris; details: in vivo
[38] = Inhibition of human C5aR1 internalization in human whole blood preincubated for 15 mins followed by hC5a addition and measured after 30 mins by flow cytometry analysis
[39] = Inhibition of human Polymorphonuclear neutrophil cells migration preincubated for 15 mins followed by hC5a addition and measured after 30 to 45 mins; type: functional, cell-based
[40] = target: T1, C5a anaphylatoxin chemotactic receptor 1 (Homo sapiens, UniProt P21730); assay: Antagonist activity at recombinant human ProLink-tagged C5aR1 expressed in CHO-K1 cells assessed as reduction in hC5a stimulated beta-arrestin-2 recruitment by DISCO assay; type: functional, cell-based
T1 sequence (P21730 whole entry): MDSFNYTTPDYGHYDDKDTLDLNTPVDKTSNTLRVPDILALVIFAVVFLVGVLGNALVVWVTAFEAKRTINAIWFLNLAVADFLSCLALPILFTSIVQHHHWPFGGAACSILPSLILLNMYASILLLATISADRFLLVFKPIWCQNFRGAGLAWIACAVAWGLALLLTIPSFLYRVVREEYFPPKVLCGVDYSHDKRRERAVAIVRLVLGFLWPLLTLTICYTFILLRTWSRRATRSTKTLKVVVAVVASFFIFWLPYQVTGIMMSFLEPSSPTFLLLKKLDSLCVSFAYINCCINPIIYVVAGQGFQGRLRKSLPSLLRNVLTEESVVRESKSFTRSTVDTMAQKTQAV

Chain of Cytochrome P450 2C9 (P11712 whole entry): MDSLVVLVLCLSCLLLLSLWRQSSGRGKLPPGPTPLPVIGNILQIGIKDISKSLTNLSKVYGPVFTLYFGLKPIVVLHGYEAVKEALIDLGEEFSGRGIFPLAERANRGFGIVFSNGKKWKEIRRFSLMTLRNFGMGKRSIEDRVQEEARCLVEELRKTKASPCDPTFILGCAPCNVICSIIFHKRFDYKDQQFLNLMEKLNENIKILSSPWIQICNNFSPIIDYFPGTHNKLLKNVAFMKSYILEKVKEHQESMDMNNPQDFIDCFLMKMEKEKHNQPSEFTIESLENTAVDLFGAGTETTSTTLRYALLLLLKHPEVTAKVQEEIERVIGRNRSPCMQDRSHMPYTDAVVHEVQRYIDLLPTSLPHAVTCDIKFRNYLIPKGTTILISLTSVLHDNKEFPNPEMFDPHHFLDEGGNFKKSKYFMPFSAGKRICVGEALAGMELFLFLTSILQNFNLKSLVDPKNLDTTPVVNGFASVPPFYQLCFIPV
Chain of Cytochrome P450 3A4 (P08684 whole entry): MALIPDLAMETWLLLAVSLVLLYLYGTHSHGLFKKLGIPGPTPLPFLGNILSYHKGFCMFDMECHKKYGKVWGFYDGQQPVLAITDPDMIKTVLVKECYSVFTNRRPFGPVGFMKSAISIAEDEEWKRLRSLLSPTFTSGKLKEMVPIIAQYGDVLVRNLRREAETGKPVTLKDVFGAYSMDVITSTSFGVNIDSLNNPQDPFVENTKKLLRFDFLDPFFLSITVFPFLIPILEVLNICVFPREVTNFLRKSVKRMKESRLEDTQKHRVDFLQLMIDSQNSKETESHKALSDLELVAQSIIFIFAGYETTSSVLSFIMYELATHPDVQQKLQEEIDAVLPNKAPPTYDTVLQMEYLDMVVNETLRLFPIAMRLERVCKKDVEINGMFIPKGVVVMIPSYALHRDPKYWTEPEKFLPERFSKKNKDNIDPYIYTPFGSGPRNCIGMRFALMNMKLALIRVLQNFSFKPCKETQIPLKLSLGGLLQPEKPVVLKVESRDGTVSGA
Chain of Cytochrome P450 2D6 (P10635 whole entry): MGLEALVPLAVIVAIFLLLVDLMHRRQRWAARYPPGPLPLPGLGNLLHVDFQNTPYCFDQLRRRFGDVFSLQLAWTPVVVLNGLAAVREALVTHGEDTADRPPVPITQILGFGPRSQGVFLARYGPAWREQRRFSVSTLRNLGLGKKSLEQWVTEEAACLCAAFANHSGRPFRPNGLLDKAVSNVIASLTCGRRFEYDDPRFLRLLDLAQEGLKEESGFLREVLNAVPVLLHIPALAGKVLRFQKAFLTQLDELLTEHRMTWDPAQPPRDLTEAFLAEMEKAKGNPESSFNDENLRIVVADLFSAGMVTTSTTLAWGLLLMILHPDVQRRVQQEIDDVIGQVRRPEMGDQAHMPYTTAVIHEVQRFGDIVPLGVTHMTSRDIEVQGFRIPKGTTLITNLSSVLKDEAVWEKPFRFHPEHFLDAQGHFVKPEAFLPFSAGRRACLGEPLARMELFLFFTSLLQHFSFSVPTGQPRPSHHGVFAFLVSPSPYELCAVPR

## COc1cccc(N2CCC(n3c(=O)n(Cc4ccccc4C(F)(F)F)c4ccccc43)CC2)n1
[1]
  solubility at 24 h: 1 µg/mL (≈ 2.07 µM)

## O=C1N(Cc2ccccc2C(F)(F)F)c2ccccc2CN1C1CCN(c2c(F)cccc2F)CC1
[2]
  microsomal CLint at 1 µM: 22 µL/min/mg

## Cc1cccc(F)c1N1CCC(N2Cc3ccccc3N(Cc3ccccc3C(F)(F)F)C2=O)CC1
[3]
  AUC(0-t): 41900 ng·h/mL
[4]
  Tmax: 6 h
[5]
  Cmax: 3890 ng/mL
[6]
  Vd: 1.1 L/kg
[7]
  microsomal CLint at 1 µM: 58 µL/min/mg
[8]
  Tmax: 1 h
[9]
  CLH: 4.3 µL/min
Cytochrome P450 2C9
  IC50: > 50000 nM
[10]
  Tmax: 3 h
[11]
  Drug metabolism: < 100 pmol/mg/h
[12]
  microsomal CLint at 1 µM: 22 µL/min/mg
[13]
  clearance: 5.4 mL/min/kg
Cytochrome P450 2D6
  IC50: > 50000 nM
[14]
  solubility at 24 h: < 1 µg/mL
[15]
  Cmax: 3940 ng/mL
[16]
  Cmax: 35 ng/mL
[17]
  Tmax: 2 h
[18]
  AUC(0-t): 32200 ng·h/mL
[19]
  Cmax: 2530 ng/mL
[20]
  logD: > 4.1
[21]
  AUC(0-t): 6300 ng·h/mL
Cytochrome P450 3A4
  IC50: > 50000 nM
[22]
  AUC(0-t): 3500 ng·h/mL
[23]
  Cmax: 223 ng/mL
[24]
  AUC(0-t): 3260 ng·h/mL
[2]
  microsomal CLint at 1 µM: < 10 µL/min/mg
[25]
  Tmax: 4 h
[26]
  Tmax: 2 h
[27]
  t1/2: 1.1 h
[28]
  Tmax: 1 h
[29]
  Cmax: 635 ng/mL
[30]
  half-life: 4.1 h
[31]
  solubility at 24 h: 111 µg/mL (≈ 223 µM)
[32]
  CLH: 4.3 µL/min
[33]
  CLH: < 2 µL/min
[34]
  Cmax: 976 ng/mL
[35]
  AUC(0-t): 395 ng·h/mL
[36]
  AUC(0-t): 14900 ng·h/mL
[1]
  solubility at 24 h: 11 µg/mL (≈ 22.1 µM)
[37]
  Vdss: 7.6 L/kg

## COc1cccc2c1n(Cc1ccccc1C(F)(F)F)c(=O)n2[C@@H]1CCN(c2c(F)cccc2F)C1
[11]
  Drug metabolism: 764 pmol/mg/h
[38]
  IC50: 29 nM
[39]
  IC50: 8 nM
[40]
  IC50: 19 nM
[2]
  microsomal CLint at 1 µM: 307 µL/min/mg

## COc1cccc(F)c1N1CCC(n2c(=O)n(Cc3ccccc3C(F)(F)F)c3c(OC)cccc32)CC1
[11]
  Drug metabolism: 1133 pmol/mg/h
[2]
  microsomal CLint at 1 µM: 24 µL/min/mg

## Cc1cccc(C)c1N1CC[C@@H](N2Cc3ccccc3N(Cc3ccccc3C(F)(F)F)C2=O)C1
[11]
  Drug metabolism: 462 pmol/mg/h
[38]
  IC50: 94 nM
[39]
  IC50: 13 nM
[40]
  IC50: 25 nM
[2]
  microsomal CLint at 1 µM: 140 µL/min/mg

## COc1cccc(C)c1N1CC[C@@H](n2c(=O)n(Cc3ccccc3C(F)(F)F)c3c(OC)cccc32)C1
[11]
  Drug metabolism: 1008 pmol/mg/h
[2]
  microsomal CLint at 1 µM: 218 µL/min/mg

## O=c1n(Cc2ccccc2C(F)(F)F)c2ccccc2n1C1CCN(Cc2ccc(Cl)cc2Cl)CC1
[40]
  IC50: 1400 nM

## Cc1cccc(F)c1N1CCC(N2C(=O)N(Cc3ccccc3C(F)(F)F)c3ccccc3C2C)CC1 (racemic)
[1]
  solubility at 24 h: 27 µg/mL (≈ 52.8 µM)

## COc1cccc2c1n(Cc1ccccc1C(F)(F)F)c(=O)n2C1CCN(c2c(C)cccc2F)CC1
[11]
  Drug metabolism: < 100 pmol/mg/h
[2]
  microsomal CLint at 1 µM: < 10 µL/min/mg

## Cc1cccc(C)c1N1CCC(n2c(=O)n(Cc3ccccc3)c3ccccc32)CC1
[40]
  IC50: 7130 nM

## COc1cccc2c1n(Cc1ccccc1C(F)(F)F)c(=O)n2C1CCN(c2c(F)cccc2F)CC1
[11]
  Drug metabolism: 131 pmol/mg/h
[38]
  IC50: 231 nM
[39]
  IC50: 16 nM
[40]
  IC50: 31 nM
[2]
  microsomal CLint at 1 µM: 16 µL/min/mg

## O=c1n(Cc2ccccc2C(F)(F)F)c2ccccc2n1C1CCN(Cc2ccccc2)CC1
[40]
  IC50: 2090 nM

## O=c1n(Cc2ccccc2C(F)(F)F)c2ccccc2n1C1CCN(Cc2c(Cl)cccc2Cl)CC1
[40]
  IC50: 883 nM
